Test results as given in patent US11453690B2, “Receptor inhibitor, pharmaceutical composition comprising same, and use thereof” (BEIJING TIDE PHARMACEUTICAL CO., LTD., priority 2018, dated 2022).
pIC50: −log10 of the molar value.

Target: AT2 Receptor (AT2R) (Homo sapiens (Human), UniProt P50052)
Test: Measurement of inhibitory activity on AT2 receptor (Tag-lite HTRF, Tb-labeled AT2R cells, angiotensin receptor red agonist)
Assay type: binding
Settings: 1 h room temperature

AT2 Receptor (AT2R), sequence (P50052 whole entry): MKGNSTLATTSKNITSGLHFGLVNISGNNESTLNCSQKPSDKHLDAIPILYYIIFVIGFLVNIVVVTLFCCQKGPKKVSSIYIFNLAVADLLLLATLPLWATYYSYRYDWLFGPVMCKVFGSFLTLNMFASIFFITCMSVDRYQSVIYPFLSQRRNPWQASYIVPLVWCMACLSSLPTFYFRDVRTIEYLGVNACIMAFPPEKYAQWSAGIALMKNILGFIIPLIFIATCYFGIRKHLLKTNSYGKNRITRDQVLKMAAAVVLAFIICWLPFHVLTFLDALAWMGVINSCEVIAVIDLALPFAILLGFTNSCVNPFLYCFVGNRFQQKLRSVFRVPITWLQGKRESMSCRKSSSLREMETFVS

**Q.** How did the pIC50 turn out when `CC(CC(=O)N1[C@H]2CC[C@@H]1[C@@H](C(=O)O)N(C(=O)C(c1ccccc1)c1ccccc1)C2)c1ccccc1` (stereo partly drawn) [Compound C223, (1R,2S,5S)-3-(2,2-diphenylacetyl)-8-(3-phenylbutyryl)-3,8-diazabicyclo [3.2.1]octane-2-carboxylic acid] was run?
**A.** 8.10

**Q.** `CC(CC(=O)N1[C@H]2CC[C@@H]1[C@@H](C(=O)O)N(C(=O)N(c1ccccc1)c1ccccc1)C2)c1ccccc1` (stereo partly drawn) [Compound C224, (1R,2S,5S)-3-(diphenylcarbamoyl)-8-(3-phenylbutylyl)-3,8-diazabicyclo [3.2.1]octane-2-carboxylic acid] was tested. Which pIC50 did it give?
**A.** 7.62

**Q.** With `CC(c1ccccc1)N(C)C(=O)N1[C@H]2CC[C@@H]1[C@@H](C(=O)O)N(C(=O)N(c1ccccc1)c1ccccc1)C2` (stereo partly drawn) [Compound C225, (1R,2S,5S)-3-(diphenylcarbamoyl)-8-(methyl (1-phenylethyl)carbamoyl)-3,8-diazabicyclo [3.2.1]octane-2-carboxylic acid] as the molecule, how does the pIC50 read?
**A.** 7.93

**Q.** With `C[C@H](c1ccccc1)N(C)C(=O)N1[C@H]2CC[C@@H]1[C@@H](C(=O)O)N(C(=O)N(c1ccccc1)c1ccccc1)C2` [Compound C226, (1R,2S,5S)-3-(diphenylcarbamoyl)-8-(methyl((R)-1-phenylethyl)carbamoyl)-3,8-diazabicyclo [3.2.1]octane-2-carboxylic acid] as the molecule, how does the pIC50 read?
**A.** 7.90

**Q.** With `C[C@@H](c1ccccc1)N(C)C(=O)N1[C@H]2CC[C@@H]1[C@@H](C(=O)O)N(C(=O)N(c1ccccc1)c1ccccc1)C2` [Compound C227, (1R,2S,5S)-3-(diphenylcarbamoyl)-8-(methyl ((S)-1-phenylethyl)carbamoyl)-3,8-diazabicyclo [3.2.1]octane-2-carboxylic acid] as the molecule, how does the pIC50 read?
**A.** 7.74

**Q.** With `CC(c1ccsc1)N(C)C(=O)N1[C@H]2CC[C@@H]1[C@@H](C(=O)O)N(C(=O)N(c1ccccc1)c1ccccc1)C2` (stereo partly drawn) [Compound C229, (1R,2S,5S)-3-(diphenylcarbamoyl)-8-(methyl (1-(thiophene-3-yl)ethyl)carbamoyl)-3,8-diazabicyclo[3.2.1] octane-2-carboxylic acid] as the molecule, how does the pIC50 read?
**A.** 8.00

**Q.** `CC(Cc1ccccc1)C(=O)N1[C@H]2CC[C@@H]1[C@@H](C(=O)O)N(C(=O)C(c1ccccc1)c1ccccc1)C2` (stereo partly drawn) [Compound C230, (1R,2S,5S)-3-(2,2-diphenylacetyl)-8-(2-methyl-3-phenylpropionyl)-3,8-diazabicyclo [3.2.1]octane-2-carboxylic acid] was tested. Which pIC50 did it give?
**A.** 7.30

**Q.** How did the pIC50 turn out when `C/C(=C\c1ccccc1)C(=O)N1[C@H]2CC[C@@H]1[C@@H](C(=O)O)N(C(=O)C(c1ccccc1)c1ccccc1)C2` [Compound C231, (1R,2S,5S)-3-(2,2-diphenylacetyl)-8-((E)-2-methyl-3-phenylacryloyl)-3,8-diazabicyclo [3.2.1]octane-2-carboxylic acid] was run?
**A.** 6.99

**Q.** `CN(C)S(=O)(=O)NC(=O)[C@@H]1[C@H]2CC[C@@H](CN1C(=O)C(c1ccccc1)c1ccccc1)N2C(=O)OCc1ccccc1` [Compound C233] was tested. Which pIC50 did it give?
**A.** 6.99

**Q.** `C=CCc1ccc(CN(C)C(=O)N2[C@H]3CC[C@@H]2[C@@H](C(=O)O)N(C(=O)N(c2ccccc2)c2ccccc2)C3)cc1` [Compound C235, (1R,2S,5S)-8-((4-allylbenzyl)(methyl)carbamoyl)-3-(diphenylcarbamoyl)-3,8-diazabicyclo[3.2.1]octane-2-carboxylic acid] was tested. Which pIC50 did it give?
**A.** 8.17

**Q.** How did the pIC50 turn out when `CCCc1ccc(CN(C)C(=O)N2[C@H]3CC[C@@H]2[C@@H](C(=O)O)N(C(=O)N(c2ccccc2)c2ccccc2)C3)cc1` [Compound C236, (1R,2S,5S)-3-(diphenylcarbamoyl)-8-(methyl(4-propylbenzyl)carbamoyl)-3,8-diazabicyclo[3.2.1]octane-2-carboxylic acid] was run?
**A.** 8.21

**Q.** How did the pIC50 turn out when `O=C(O)[C@@H]1[C@H]2CC[C@@H](CN1C(=O)N(c1ccccc1)c1ccccc1)N2C(=O)c1ccccc1-c1ccccc1` [Compound C240, (1R,2S,5S)-8-([1,1′-biphenyl]-2-carbonyl)-3-(diphenylcarbamoyl)-3,8-diazabicyclo [3.2.1]octane-2-carboxylic acid] was run?
**A.** 6.95

**Q.** `Cn1cc(-c2ccccc2C(=O)N2[C@H]3CC[C@@H]2[C@@H](C(=O)O)N(C(=O)N(c2ccccc2)c2ccccc2)C3)cn1` [Compound C241, (1R,2S,5S)-3-(diphenylcarbamoyl)-8-(2-(1-methyl-1H-pyrazole-4-yl)benzoyl)-3,8-diazabicyclo [3.2.1]octane-2-carboxylic acid] was tested. Which pIC50 did it give?
**A.** 6.81

**Q.** With `CCN(Cc1csc2ccccc12)C(=O)N1[C@H]2CC[C@@H]1[C@@H](C(=O)O)N(C(=O)N(c1ccccc1)c1ccccc1)C2` [Compound C245, (1R,2S,5S)-8-((benzo[b]thiophene-3-ylmethyl) (ethyl)carbamoyl)-3-(diphenylcarbamoyl)-3,8-diazabicyclo [3.2.1]octane-2-carboxylic acid] as the molecule, how does the pIC50 read?
**A.** 7.98

**Q.** With `CN(Cc1csc2ccccc12)C(=O)N1[C@H]2CC[C@@H]1[C@@H](C(=O)O)N(C(=O)N(c1ccccc1)c1ccccc1)C2` [Compound C246] as the molecule, how does the pIC50 read?
**A.** 8.00

**Q.** With `CN(Cc1ccc2cc[nH]c2c1)C(=O)N1[C@H]2CC[C@@H]1[C@@H](C(=O)O)N(C(=O)N(c1ccccc1)c1ccccc1)C2` [Compound C249, (1R,2S,5S)-8-(((1H-indole-6-yl)methyl)(methyl)carbamoyl)-3-(diphenylcarbamoyl)-3,8-diazabicyclo [3.2.1]octane-2-carboxylic acid] as the molecule, how does the pIC50 read?
**A.** 7.96

**Q.** With `CN(Cc1ccc(Cl)nc1)C(=O)N1[C@H]2CC[C@@H]1[C@@H](C(=O)O)N(C(=O)N(c1ccccc1)c1ccccc1)C2` [Compound C255] as the molecule, how does the pIC50 read?
**A.** 7.86

**Q.** With `O=C(O)[C@@H]1[C@H]2CC[C@@H](CN1C(=O)N(c1ccccc1)c1ccccc1)N2C(=O)C#Cc1ccccc1` [Compound C256, (1R,2S,5S)-3-(diphenylcarbamoyl)-8-(3-phenylpropioloyl)-3,8-diazabicyclo [3.2.1]octane-2-carboxylic acid] as the molecule, how does the pIC50 read?
**A.** 7.40

**Q.** `O=C(O)[C@@H]1[C@H]2CC[C@@H](CN1C(=O)N(c1ccccc1)c1ccccc1)N2C(=O)Cc1c[nH]c2ccccc12` [Compound C259, (1R,2S,5S)-8-(2-(1H-indole-3-yl)acetyl)-3-(diphenylcarbamoyl)-3,8-diazabicyclo [3.2.1]octane-2-carboxylic acid] was tested. Which pIC50 did it give?
**A.** 6.61

**Q.** With `CCN(Cc1ccoc1)C(=O)N1[C@H]2CC[C@@H]1[C@@H](C(=O)O)N(C(=O)N(c1ccccc1)c1ccccc1)C2` [Compound C260, (1R,2S,5S)-3-(diphenylcarbamoyl)-8-(ethyl (furan-3-ylmethyl)carbamoyl)-3,8-diazabicyclo [3.2.1]octane-2-carboxylic acid] as the molecule, how does the pIC50 read?
**A.** 7.53

**Q.** With `CN(Cc1ccc2ccccc2n1)C(=O)N1[C@H]2CC[C@@H]1[C@@H](C(=O)O)N(C(=O)N(c1ccccc1)c1ccccc1)C2` [Compound C265, (1R,2S,5S)-3-(diphenylcarbamoyl)-8-(methyl (quinoline-2-ylmethyl)carbamoyl)-3,8-diazabicyclo [3.2.1]octane-2-carboxylic acid] as the molecule, how does the pIC50 read?
**A.** 7.56

**Q.** With `CN(Cc1ccc2ncccc2c1)C(=O)N1[C@H]2CC[C@@H]1[C@@H](C(=O)O)N(C(=O)N(c1ccccc1)c1ccccc1)C2` [Compound C266, (1R,2S,5S)-3-(diphenylcarbamoyl)-8-(methyl (quinoline-6-ylmethyl)carbamoyl)-3,8-diazabicyclo [3.2.1]octane-2-carboxylic acid] as the molecule, how does the pIC50 read?
**A.** 8.79
